Data on two molecules can be found in ChEMBL document CHEMBL3352589, “The use of spirocyclic scaffolds in drug discovery” (Bioorg Med Chem Lett, 2014).

The target of the experiment is 5-hydroxytryptamine receptor 6 (Homo sapiens, UniProt P50406). The experiment is described as follows: Antagonist activity at 5-HT6 receptor (unknown origin).
5-hydroxytryptamine receptor 6, sequence (P50406 whole entry): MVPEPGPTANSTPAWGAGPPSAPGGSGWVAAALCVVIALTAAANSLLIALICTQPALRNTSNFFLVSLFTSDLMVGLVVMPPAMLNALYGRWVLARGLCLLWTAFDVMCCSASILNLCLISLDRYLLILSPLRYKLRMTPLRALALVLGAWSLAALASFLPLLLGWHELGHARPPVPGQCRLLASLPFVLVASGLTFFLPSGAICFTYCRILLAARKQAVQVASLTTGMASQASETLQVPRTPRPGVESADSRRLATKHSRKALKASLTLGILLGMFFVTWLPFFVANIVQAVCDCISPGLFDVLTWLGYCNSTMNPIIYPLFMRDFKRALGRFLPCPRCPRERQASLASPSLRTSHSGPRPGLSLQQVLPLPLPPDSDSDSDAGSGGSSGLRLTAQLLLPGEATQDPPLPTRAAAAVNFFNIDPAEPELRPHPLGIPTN

`CN1CCc2ccc(N3C(=O)CSC34C(=O)Nc3ccccc34)cc2CC1` (racemic) gave a Ki of 26 nM. Take `CN1CCc2ccc(N3C(=O)CSC34C(=O)Nc3ccccc34)cc2CC1` (single isomer, unassigned): the Ki is 15 nM.
